Assay [1] addresses Cyclin-dependent kinase-like 1 (Homo sapiens) (UniProt Q00532).
The target of assay [2] is Ribosomal protein S6 kinase alpha-3 (Homo sapiens) (UniProt P51812).
Assay [3] concerns the target Mitogen-activated protein kinase 6 (Homo sapiens) (UniProt Q16659).
For assay [4], the target named is Serine/threonine-protein kinase 26 (Homo sapiens) (UniProt Q9P289).
The target of assay [5] is Calcium/calmodulin-dependent protein kinase type II subunit beta (Homo sapiens) (UniProt Q13554).
Calcium/calmodulin-dependent protein kinase type II subunit beta (Homo sapiens), sequence (Q13554 whole entry): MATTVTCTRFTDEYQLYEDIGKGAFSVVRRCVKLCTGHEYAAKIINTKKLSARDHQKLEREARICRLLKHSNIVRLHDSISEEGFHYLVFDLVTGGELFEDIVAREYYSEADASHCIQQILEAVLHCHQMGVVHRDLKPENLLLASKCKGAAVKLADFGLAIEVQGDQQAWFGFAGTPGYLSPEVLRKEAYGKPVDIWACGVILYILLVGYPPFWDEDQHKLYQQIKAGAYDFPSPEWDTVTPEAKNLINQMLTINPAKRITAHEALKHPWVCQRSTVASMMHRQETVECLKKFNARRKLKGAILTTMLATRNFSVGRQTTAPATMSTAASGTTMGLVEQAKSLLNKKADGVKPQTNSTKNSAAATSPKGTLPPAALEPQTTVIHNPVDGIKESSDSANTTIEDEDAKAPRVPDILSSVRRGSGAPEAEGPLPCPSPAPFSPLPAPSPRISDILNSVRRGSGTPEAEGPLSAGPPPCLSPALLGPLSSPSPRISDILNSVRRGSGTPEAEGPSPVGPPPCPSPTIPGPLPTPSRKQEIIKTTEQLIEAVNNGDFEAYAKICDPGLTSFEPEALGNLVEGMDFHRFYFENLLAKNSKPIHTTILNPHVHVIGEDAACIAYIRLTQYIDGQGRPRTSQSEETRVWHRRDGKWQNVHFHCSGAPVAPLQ
In assay [6] the target is TRAF2 and NCK-interacting protein kinase (Homo sapiens) (UniProt Q9UKE5).
TRAF2 and NCK-interacting protein kinase (Homo sapiens), sequence (Q9UKE5 whole entry, looked up): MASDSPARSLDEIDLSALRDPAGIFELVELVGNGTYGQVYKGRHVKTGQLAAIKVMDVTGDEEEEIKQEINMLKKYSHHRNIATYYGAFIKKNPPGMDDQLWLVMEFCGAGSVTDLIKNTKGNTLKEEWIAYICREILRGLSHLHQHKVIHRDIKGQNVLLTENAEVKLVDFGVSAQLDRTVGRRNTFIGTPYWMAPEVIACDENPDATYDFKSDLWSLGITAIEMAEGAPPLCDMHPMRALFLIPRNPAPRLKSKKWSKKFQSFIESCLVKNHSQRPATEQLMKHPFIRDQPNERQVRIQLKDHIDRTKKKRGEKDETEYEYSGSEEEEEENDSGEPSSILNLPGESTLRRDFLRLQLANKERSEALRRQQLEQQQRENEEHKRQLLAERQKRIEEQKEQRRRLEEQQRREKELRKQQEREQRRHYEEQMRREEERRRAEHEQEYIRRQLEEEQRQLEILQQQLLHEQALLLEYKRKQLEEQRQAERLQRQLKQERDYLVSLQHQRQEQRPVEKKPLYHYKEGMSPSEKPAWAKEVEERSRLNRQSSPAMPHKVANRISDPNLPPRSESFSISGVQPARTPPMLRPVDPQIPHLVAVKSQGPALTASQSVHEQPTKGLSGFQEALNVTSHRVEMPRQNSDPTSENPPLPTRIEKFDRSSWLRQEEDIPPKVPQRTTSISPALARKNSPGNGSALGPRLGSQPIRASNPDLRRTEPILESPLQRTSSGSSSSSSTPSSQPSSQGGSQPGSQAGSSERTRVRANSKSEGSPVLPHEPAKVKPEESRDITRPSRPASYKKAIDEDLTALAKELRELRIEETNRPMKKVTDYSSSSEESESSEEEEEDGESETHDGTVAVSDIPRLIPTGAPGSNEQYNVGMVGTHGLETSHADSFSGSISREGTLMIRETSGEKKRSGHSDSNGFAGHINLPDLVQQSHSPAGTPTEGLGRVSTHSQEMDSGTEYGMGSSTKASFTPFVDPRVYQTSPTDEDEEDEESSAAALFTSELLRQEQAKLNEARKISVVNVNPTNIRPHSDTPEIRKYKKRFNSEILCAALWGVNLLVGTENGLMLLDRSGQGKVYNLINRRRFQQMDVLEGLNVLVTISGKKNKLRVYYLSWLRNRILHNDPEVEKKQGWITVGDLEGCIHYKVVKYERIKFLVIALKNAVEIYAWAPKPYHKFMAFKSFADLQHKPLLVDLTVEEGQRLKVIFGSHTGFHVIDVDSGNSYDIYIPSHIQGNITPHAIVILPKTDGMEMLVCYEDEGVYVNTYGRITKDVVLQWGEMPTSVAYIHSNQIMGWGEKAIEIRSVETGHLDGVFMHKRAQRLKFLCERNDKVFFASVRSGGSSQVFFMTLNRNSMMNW
The target in assay [7] is Serine/threonine-protein kinase 16 (Homo sapiens) (UniProt O75716).
Serine/threonine-protein kinase 16 (Homo sapiens), sequence (O75716 whole entry, canonical isoform): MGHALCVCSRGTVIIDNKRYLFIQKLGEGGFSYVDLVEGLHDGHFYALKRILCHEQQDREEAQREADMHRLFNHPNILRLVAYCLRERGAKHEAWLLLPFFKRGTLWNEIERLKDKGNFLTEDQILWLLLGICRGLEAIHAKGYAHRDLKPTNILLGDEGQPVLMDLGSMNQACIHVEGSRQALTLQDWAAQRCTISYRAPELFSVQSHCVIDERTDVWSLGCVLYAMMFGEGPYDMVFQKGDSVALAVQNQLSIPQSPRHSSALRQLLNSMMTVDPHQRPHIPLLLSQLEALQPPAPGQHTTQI
For assay [8], the target named is Casein kinase I isoform gamma-2 (Homo sapiens) (UniProt P78368).
Assay [9] deals with Dual specificity protein kinase CLK2 (Homo sapiens) (UniProt P49760).
Dual specificity protein kinase CLK2 (Homo sapiens), sequence (P49760 whole entry, looked up): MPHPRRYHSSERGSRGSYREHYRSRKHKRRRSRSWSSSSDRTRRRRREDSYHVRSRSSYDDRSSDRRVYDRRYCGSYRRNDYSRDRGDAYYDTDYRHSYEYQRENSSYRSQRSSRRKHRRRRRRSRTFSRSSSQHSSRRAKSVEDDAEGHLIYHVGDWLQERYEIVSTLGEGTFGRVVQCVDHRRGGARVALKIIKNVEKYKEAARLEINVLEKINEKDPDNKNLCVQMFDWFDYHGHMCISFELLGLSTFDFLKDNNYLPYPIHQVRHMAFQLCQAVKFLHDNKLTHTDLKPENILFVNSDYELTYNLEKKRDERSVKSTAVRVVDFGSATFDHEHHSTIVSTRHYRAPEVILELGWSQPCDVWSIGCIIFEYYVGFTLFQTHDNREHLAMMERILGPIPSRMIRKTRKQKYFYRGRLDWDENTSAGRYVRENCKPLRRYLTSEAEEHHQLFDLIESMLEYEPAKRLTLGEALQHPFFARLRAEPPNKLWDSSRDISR
For assay [10], the target named is Serine/threonine-protein kinase pim-1 (Homo sapiens) (UniProt P11309).
For assay [11], the target named is Cyclin-dependent kinase 2 (Homo sapiens, UniProt P24941).
Assay [12] deals with T1, Mitogen-activated protein kinase kinase kinase 5 (Homo sapiens) (UniProt Q99683).
T1 sequence (whole entry): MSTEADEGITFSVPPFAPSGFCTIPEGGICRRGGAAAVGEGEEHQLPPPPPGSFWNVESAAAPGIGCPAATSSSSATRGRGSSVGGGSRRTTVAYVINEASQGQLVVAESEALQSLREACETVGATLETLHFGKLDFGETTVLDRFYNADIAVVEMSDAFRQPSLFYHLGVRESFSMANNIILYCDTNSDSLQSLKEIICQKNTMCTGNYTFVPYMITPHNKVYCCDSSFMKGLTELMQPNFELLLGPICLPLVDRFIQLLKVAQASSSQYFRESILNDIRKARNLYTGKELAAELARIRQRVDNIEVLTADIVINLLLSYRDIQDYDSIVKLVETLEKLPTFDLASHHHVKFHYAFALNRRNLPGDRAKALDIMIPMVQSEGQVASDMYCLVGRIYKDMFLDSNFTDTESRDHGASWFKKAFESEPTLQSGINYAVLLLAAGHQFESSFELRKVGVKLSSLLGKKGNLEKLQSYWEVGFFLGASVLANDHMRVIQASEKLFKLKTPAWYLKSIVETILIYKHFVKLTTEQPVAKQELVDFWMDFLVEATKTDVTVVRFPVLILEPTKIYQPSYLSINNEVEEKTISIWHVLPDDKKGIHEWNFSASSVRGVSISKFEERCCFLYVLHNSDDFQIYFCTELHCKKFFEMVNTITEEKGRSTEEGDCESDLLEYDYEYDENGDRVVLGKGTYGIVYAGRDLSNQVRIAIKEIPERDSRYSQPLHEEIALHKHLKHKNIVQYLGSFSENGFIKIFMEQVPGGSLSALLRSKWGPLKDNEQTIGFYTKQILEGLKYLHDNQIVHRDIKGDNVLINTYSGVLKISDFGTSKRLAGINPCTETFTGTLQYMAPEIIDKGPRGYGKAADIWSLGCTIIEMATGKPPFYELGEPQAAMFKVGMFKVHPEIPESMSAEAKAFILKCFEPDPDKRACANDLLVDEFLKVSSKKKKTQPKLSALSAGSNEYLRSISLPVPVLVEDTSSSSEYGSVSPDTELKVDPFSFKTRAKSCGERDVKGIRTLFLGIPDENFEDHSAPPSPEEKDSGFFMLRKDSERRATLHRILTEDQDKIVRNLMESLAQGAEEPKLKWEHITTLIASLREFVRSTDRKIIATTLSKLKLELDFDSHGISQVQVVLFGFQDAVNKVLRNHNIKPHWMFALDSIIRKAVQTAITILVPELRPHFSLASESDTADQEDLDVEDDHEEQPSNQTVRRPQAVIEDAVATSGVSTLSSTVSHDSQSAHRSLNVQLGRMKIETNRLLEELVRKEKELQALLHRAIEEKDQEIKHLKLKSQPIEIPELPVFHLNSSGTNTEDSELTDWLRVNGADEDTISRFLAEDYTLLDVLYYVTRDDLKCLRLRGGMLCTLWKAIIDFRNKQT

Assay [13] deals with Serine/threonine-protein kinase OSR1 (Homo sapiens) (UniProt O95747).
Assay [14] deals with Serine/threonine-protein kinase pim-2 (Homo sapiens, UniProt Q9P1W9).
Serine/threonine-protein kinase pim-2, sequence (Q9P1W9 whole entry, looked up): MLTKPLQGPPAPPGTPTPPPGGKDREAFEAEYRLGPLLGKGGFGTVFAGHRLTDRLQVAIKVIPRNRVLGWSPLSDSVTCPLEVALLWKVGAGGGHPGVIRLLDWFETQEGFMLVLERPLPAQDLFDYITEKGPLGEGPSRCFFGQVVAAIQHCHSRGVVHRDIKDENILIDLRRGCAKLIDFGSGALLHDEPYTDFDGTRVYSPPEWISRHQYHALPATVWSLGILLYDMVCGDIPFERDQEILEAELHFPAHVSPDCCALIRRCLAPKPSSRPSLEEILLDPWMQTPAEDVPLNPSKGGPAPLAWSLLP
Assay [15] addresses Cyclin-dependent kinase 6 (Homo sapiens) (UniProt Q00534).
For assay [16], the target named is T2, Serine/threonine-protein kinase 17A (Homo sapiens) (UniProt Q9UEE5).
T2 sequence (whole entry): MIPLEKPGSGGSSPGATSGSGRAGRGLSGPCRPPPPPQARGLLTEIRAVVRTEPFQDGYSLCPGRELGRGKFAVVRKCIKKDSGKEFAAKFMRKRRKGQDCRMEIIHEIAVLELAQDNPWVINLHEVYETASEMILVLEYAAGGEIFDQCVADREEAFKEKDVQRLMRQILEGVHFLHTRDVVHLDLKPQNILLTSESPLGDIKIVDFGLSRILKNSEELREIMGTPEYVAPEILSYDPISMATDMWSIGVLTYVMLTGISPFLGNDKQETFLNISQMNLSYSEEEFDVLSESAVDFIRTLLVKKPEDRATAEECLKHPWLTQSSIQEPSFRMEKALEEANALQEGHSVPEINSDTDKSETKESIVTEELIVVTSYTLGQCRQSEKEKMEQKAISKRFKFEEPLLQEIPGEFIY

In assay [17] the target is Glycogen synthase kinase-3 beta (Homo sapiens, UniProt P49841).
Glycogen synthase kinase-3 beta, sequence (P49841 whole entry, looked up): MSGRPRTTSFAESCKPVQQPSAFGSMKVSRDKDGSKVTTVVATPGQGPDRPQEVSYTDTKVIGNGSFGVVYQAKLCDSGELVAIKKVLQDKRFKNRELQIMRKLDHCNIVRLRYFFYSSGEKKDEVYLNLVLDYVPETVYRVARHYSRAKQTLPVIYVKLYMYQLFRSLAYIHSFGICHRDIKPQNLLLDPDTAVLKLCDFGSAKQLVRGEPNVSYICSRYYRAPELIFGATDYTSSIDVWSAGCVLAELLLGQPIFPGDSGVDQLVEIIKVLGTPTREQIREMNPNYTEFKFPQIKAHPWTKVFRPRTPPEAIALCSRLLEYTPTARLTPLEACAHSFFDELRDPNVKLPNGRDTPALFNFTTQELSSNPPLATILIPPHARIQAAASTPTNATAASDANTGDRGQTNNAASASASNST
Assay [18] has as its target Calcium/calmodulin-dependent protein kinase type II subunit alpha (Homo sapiens) (UniProt Q9UQM7).
Assay [19] concerns the target Serine/threonine-protein kinase PAK 6 (Homo sapiens) (UniProt Q9NQU5).
The target of assay [20] is Casein kinase I isoform gamma-1 (Homo sapiens) (UniProt Q9HCP0).

Consider 7 molecules from ChEMBL document CHEMBL1145498, “A systematic interaction map of validated kinase inhibitors with Ser/Thr kinases” (Proc Natl Acad Sci U S A, 2007).

Mitogen-activated protein kinase 6 (Homo sapiens), sequence (Q16659 whole entry): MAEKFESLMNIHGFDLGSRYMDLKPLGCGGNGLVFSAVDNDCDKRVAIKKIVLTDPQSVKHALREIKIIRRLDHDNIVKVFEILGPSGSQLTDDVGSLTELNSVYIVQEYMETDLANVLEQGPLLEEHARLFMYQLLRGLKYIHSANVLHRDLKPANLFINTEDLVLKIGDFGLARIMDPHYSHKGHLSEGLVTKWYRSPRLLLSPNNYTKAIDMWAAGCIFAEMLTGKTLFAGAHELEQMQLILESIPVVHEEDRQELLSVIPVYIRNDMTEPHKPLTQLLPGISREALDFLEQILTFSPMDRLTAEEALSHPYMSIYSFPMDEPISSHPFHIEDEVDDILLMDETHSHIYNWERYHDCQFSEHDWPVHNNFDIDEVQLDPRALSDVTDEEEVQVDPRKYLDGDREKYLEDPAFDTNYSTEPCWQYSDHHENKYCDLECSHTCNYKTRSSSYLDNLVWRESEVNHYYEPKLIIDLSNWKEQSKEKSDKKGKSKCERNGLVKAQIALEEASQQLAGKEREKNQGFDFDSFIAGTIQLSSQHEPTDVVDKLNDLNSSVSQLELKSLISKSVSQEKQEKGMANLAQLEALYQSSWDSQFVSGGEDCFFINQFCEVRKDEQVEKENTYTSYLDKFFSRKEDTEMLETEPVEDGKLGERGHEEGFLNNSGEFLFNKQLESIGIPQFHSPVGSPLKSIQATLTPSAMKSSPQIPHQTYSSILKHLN
Ribosomal protein S6 kinase alpha-3 (Homo sapiens), sequence (P51812 whole entry): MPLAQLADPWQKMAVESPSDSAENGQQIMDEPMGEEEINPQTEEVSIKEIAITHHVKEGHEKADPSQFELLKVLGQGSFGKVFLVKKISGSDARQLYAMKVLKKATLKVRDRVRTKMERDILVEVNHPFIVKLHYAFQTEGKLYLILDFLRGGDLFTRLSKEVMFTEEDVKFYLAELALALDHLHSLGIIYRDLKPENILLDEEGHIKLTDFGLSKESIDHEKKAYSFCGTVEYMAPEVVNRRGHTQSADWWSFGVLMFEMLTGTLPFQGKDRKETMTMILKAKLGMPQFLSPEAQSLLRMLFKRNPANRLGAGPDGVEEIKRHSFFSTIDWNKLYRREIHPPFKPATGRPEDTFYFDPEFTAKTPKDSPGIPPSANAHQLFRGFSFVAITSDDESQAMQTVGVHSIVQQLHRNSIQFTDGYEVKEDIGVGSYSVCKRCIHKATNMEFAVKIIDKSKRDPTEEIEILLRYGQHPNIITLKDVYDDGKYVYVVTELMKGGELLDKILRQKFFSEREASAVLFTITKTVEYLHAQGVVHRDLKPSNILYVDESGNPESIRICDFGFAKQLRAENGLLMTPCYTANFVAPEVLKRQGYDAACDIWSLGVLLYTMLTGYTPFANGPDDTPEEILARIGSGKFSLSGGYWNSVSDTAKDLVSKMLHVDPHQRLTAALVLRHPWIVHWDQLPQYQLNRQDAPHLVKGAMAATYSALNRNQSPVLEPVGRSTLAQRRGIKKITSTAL

In the case of `O=C(Nc1cccc(Nc2cc(Nc3cccc(C(F)(F)F)c3)ncn2)c1)C1CC1`, the shift in melting temperature (ΔTm) was 1.5 °C in assay [1]; 2.6 °C in assay [2]; 2.1 °C in [3]; 1.7 °C in [4]; 2.9 °C in [5]; -0.2 °C in assay [6]. In addition, the shift in melting temperature (ΔTm) in assay [7] was 3.4 °C; in assay [8], 2.3 °C; in assay [9], 0.9 °C; in assay [10] it was 1 °C; in assay [11] it was -1.5 °C; in [12], 0.9 °C. Also, the thermal shift (ΔTm) was 0.9 °C in assay [13]; 2.3 °C in assay [14]; 0.1 °C in [15]; 1.5 °C in assay [16]; 1.1 °C in assay [17]; 1.8 °C in assay [18]. The ΔTm in [19] was -0.3 °C; in [20], 1 °C.

Take `Cc1[nH]c(/C=C2\C(=O)Nc3ccc(S(=O)(=O)N(C)c4cccc(Cl)c4)cc32)c(C)c1C(=O)N1CCN(C)CC1`: the ΔTm is -0.5 °C in assay [1]; 11.3 °C in assay [2]; 1.4 °C in [3]; 5 °C in assay [4]; 0.8 °C in assay [5]; 0.4 °C in assay [6]. The ΔTm in assay [7] was 0.6 °C; in assay [8], 0.3 °C; in [9] it was 5.9 °C; in assay [10], -0.2 °C; in [11], -0.4 °C; in [12], -0.7 °C. Besides, the ΔTm is 1.6 °C in assay [13]; 1 °C in assay [14]; -0.4 °C in assay [15]; 3.3 °C in assay [16]; 4.2 °C in [17]; 3 °C in [18]. For the same molecule, the ΔTm in assay [19] amounted to 2 °C; in assay [20] it was 0.6 °C.

`CCCNC(=O)Nc1ccc(Oc2ncnc3cc(OC)c(OC)cc23)cc1Cl` [KRN-633]: the ΔTm in assay [1] turned out to be 0.8 °C; in assay [2] it was 10.7 °C; in [3], 1.2 °C; in assay [4] it was 1.2 °C; in assay [5], 0.8 °C; in assay [6] it was 0.2 °C. The ΔTm was 0.2 °C in assay [7]; 0.5 °C in assay [8]; -0.2 °C in [9]; 0.5 °C in [10]; -0.4 °C in assay [11]; 0.3 °C in assay [12]. For the same molecule, the shift in melting temperature (ΔTm) in assay [13] was found to be 0.3 °C; in [14] it was 0.2 °C; in assay [15], 0.6 °C; in assay [16], 2.7 °C; in assay [17] it was 0.1 °C; in assay [18] it was 0.8 °C. In addition, the thermal shift (ΔTm) in [19] and in [20] was 0.8 °C throughout.

In the case of `COc1cc2c(cc1OC)-c1n[nH]c(Nc3cccc(F)c3)c1C2`, the thermal shift (ΔTm) is -0.1 °C in assay [1]; 2.8 °C in assay [2]; -0.3 °C in assay [3]; 1.2 °C in assay [4]; -0.3 °C in [5]; 0.7 °C in assay [6]. The ΔTm in assay [7] was 0.4 °C; in assay [8], 0.3 °C; in assay [9] it was 1.1 °C; in assay [10] it was 0.5 °C; in assay [11], 0 °C; in [12], 4 °C. Besides, the ΔTm worked out at 0.6 °C in [13]; 0.2 °C in assay [14]; 1.7 °C in assay [15]; 1.3 °C in [16]; 2.9 °C in assay [17]; 0.3 °C in assay [18]. In addition, the ΔTm turned out to be 0.5 °C in assay [19] and 0.7 °C in assay [20].

With `Cc1ccc(NC2=CC(=O)c3sc(C)nc3C2=O)cc1`, the ΔTm in [1] is -1.3 °C; in assay [2] it was -0.9 °C; in [3], -0.3 °C; in assay [4], -0.5 °C; in assay [5], -0.6 °C; in assay [6], -1.4 °C. Moreover, the thermal shift (ΔTm) in assay [7] is -1.2 °C; in [8] it was 0 °C; in assay [9] it was -1 °C; in [10], -1.3 °C; in assay [11], 0.2 °C; in assay [12] it was -0.2 °C. Further, the ΔTm in assay [13] is -0.2 °C; in assay [14], -0.6 °C; in [15], -1.7 °C; in [16] it was -0.8 °C; in [17] it was 0.4 °C; in [18], -0.7 °C. For the same molecule, the ΔTm in assay [19] is -2.1 °C; in [20] it was -0.6 °C.

Turning to `CC(C)c1nn(-c2c(Cl)cccc2Cl)c2nc(Cc3ccc(OCCO)cc3)[nH]c(=O)c12`, the thermal shift (ΔTm) in [1] is 0.2 °C; in assay [2], 3.5 °C; in assay [3], 0 °C; in [4] it was -0.3 °C; in assay [5], 0.9 °C; in [6] it was 0 °C. Also, the ΔTm was 1.4 °C in assay [7]; -0.3 °C in [8]; 1.3 °C in [9]; 0 °C in [10]; 10.6 °C in assay [11]; 1 °C in assay [12]. The ΔTm in assay [13] was 2.9 °C; in [14] it was -0.1 °C; in assay [15], 0.5 °C; in [16], 0.1 °C; in [17] it was 0.2 °C; in [18], 0.4 °C. Besides, the ΔTm in [19] is -0.1 °C; in [20], 0.1 °C.

`CN(c1cccnc1)c1cc2c(Nc3ccc(F)c(Cl)c3)c(C#N)cnc2cn1`: the ΔTm was 5.4 °C in assay [1]; 1.7 °C in assay [2]; 4.2 °C in [3]; 1.3 °C in assay [4]; 1.2 °C in [5]; -1.2 °C in assay [6]. In addition, the ΔTm was 8.7 °C in assay [7]; 0.4 °C in assay [8]; 4.3 °C in assay [9]; 0.1 °C in assay [10]; -0.5 °C in [11]; 1.4 °C in assay [12]. For the same molecule, the shift in melting temperature (ΔTm) in [13] was 0.3 °C; in assay [14] it was 10.7 °C; in assay [15], -0.6 °C; in assay [16] it was 4.7 °C; in assay [17], 6.3 °C; in assay [18], 3.4 °C. Also, the results for the ΔTm in assay [19] and in assay [20] were -0.2 °C and 1.4 °C, respectively.
